Experimental data: US20230116114A1, “COMPOUNDS AND COMPOSITIONS FOR TREATING CNS DISORDERS” (Blue Oak Pharmaceuticals, Inc., priority 2020, published 2023)
Structures can show the parent of a compound that is named as a salt.

Test system: mice
Test: SmartCube in vivo neuropharmacological behavioral assay
Conditions: for minimal effective dose: Mus musculus, ip, 0.25 h, dose having 50% or more total activity in SmartCube, i.p., read-out: MED (minimal effective dose); for AD: antidepressant (percent probability) / AG: analgesic (percent probability) / AP: antipsychotic (percent probability) / AX: anxiolytic (percent probability) / CE: cognitive enhancer (percent probability) / HA: hallucinogenic (percent probability) / MS: mood stabilizer (percent probability) / PS (percent probability) / SD: sedative hypnotic (percent probability) / SE: side effects (percent probability) / UN: uncharacterized CNS activity (percent probability) / XG: anxiogenic (percent probability): SmartCube, i.p. 15 min before test, result at the MED
Description: The compounds were evaluated for their CNS related properties (e.g., the treatment, prevention or diagnosis of CNS or CNS-related disorders and/or amelioration of symptoms) using neuropharmacological screening methods described in S. L. Roberts et al., Front. Neurosci. 2011, 5:103 (hereinafter referred to as “Roberts,” the contents of which are incorporated herein by reference in their entirety).
According to Roberts, intact systems are useful in detecting improvement in disease-relevant endpoints, because psychiatric diseases generally result from disorders of cell-cell communication or circuitry. The endpoints are typically behavioral in nature, often requiring human observation and interpretation. In order to test multiple compounds for behavioral effects relevant to neurological and psychiatric diseases and disorders, PsychoGenics, Inc. (Paramus, N.J. “PGI”) developed SmartCube®, an automated system in which behaviors of compound-treated mice are captured by digital video and analyzed with computer algorithms to facilitate testing of multiple compounds for behavioral effects relevant to psychiatric disease. (D. Brunner et al., Drug Discov. Today 2002, 7:S107-S112; Alexandrov et al., Eur. J. Pharmacol. 2015, 753:127-134; the contents of each of which are incorporated herein by reference in their entirety).
The SmartCube® system is described in Example 2.2 of U.S. Pat. No. 9,758,529 and Example 289 of WIPO Publication No. WO2018/023070, the contents of each of which are incorporated herein by reference in their entirety.
According to the present disclosure, compounds identified may be evaluated using the SmartCube® system. The results of such analysis correlate certain patterns or combinations of behaviors to CNS effects along a percent probability scale of 0-100 where zero (0) reflects the limit of quantitation (LOQ).
The compounds of the present disclosure were evaluated for their CNS related properties (e.g., the treatment, prevention or diagnosis of CNS or CNS-related disorders and/or amelioration of symptoms) using neuropharmacological screening methods described in S. L. Roberts et al., Front. Neurosci. 2011, 5:103 (hereinafter referred to as “Roberts,” the contents of which are incorporated herein by reference in their entirety).
The SmartCube® system described herein was utilized to compare the behavioral signature of a test compound to a database of behavioral signatures obtained using a large set of diverse reference compounds (including but not limited to antipsychotics, anxiolytics, antidepressants and bipolar disorder medicine), thereby predicting the neuropharmacological effects of a test compound by similarity to major classes of compounds. It produces an activity signature indicating the probability that the activity of the test compound at the administered dose matches a given class of neuropharmacological agents. The test compound is simultaneously compared against multiple classes of agents; thus, a separate probability is generated for each behavioral effect measured (such as but not limited to anxiolytic activity and analgesic activity).
The compounds of the present disclosure were dissolved in a mixture of Pharmasolve™ (N-methyl-2-pyrrolidone (NMP)) and were injected i.p. 15 min. before the behavioral test. For each compound, injections were administered at different dose levels (e.g., 0.3, 1, 3, 10 and 30 mg per kg (mpk)). A compound's minimal effective dose (MED; see Table 3) is a measure of the compound's potency. The MED was defined as the dose (in mpk) having 50% or more total activity in SmartCube®. For each behavioral effect measured, results at the MED are presented. CNS activities of the compounds were recorded (see Table 2). In Table 1, a key to the percent probabilities (probability ×100) for each behavioral effect (“X”) are defined provided, where LOQ is the limit of quantification.

Row | SMILES | minimal effective dose | AD: antidepressant (percent probability) | AG: analgesic (percent probability) | AP: antipsychotic (percent probability) | AX: anxiolytic (percent probability) | CE: cognitive enhancer (percent probability) | HA: hallucinogenic (percent probability) | MS: mood stabilizer (percent probability) | PS (percent probability) | SD: sedative hypnotic (percent probability) | SE: side effects (percent probability) | UN: uncharacterized CNS activity (percent probability) | XG: anxiogenic (percent probability)
1 | CN1C2CCCC1c1ccccc12 [Compound 3, 12-Methyl-12-azatricyclo[6.3.1.0^2,7]dodeca-2,4,6-triene hydrochloride] | 10 to 30 mg/kg | +++ (25% ≤ X < 50%) | ++ (5% ≤ X < 25%) | + (LOQ ≤ X < 5%) | ++ (5% ≤ X < 25%) | + (LOQ ≤ X < 5%) | + (LOQ ≤ X < 5%) | + (LOQ ≤ X < 5%) | + (LOQ ≤ X < 5%) | ++ (5% ≤ X < 25%) | ++ (5% ≤ X < 25%) | ++ (5% ≤ X < 25%) | + (LOQ ≤ X < 5%)
2 | c1ccc2c(c1)C1CCCC2N1C1CCCC1 [Compound 4, 12-Cyclopentyl-12-azatricyclo[6.3.1.0^2,7]dodeca-2,4,6-triene hydrochloride] | 1 to 10 mg/kg | +++ (25% ≤ X < 50%) | ++ (5% ≤ X < 25%) | + (LOQ ≤ X < 5%) | ++ (5% ≤ X < 25%) | + (LOQ ≤ X < 5%) | + (LOQ ≤ X < 5%) | + (LOQ ≤ X < 5%) | ++ (5% ≤ X < 25%) | + (LOQ ≤ X < 5%) | + (LOQ ≤ X < 5%) | + (LOQ ≤ X < 5%) | + (LOQ ≤ X < 5%)
3 | c1ccc(CCN2C3CCCC2c2ccccc23)cc1 [Compound 5, 12-(2-Phenylethyl)-12-azatricyclo[6.3.1.0^2,7]dodeca-2,4,6-triene] | 10 to 30 mg/kg | ++ (5% ≤ X < 25%) | + (LOQ ≤ X < 5%) | ++ (5% ≤ X < 25%) | ++ (5% ≤ X < 25%) | + (LOQ ≤ X < 5%) | + (LOQ ≤ X < 5%) | + (LOQ ≤ X < 5%) | + (LOQ ≤ X < 5%) | + (LOQ ≤ X < 5%) | + (LOQ ≤ X < 5%) | +++ (25% ≤ X < 50%) | + (LOQ ≤ X < 5%)
4 | CCN1C2CCCC1c1ccccc12 [Compound 6, 12-Ethyl-12-azatricyclo[6.3.1.0,]dodeca-2,4,6-triene hydrochloride] | 10 to 30 mg/kg | +++ (25% ≤ X < 50%) | ++ (5% ≤ X < 25%) | + (LOQ ≤ X < 5%) | ++ (5% ≤ X < 25%) | + (LOQ ≤ X < 5%) | + (LOQ ≤ X < 5%) | + (LOQ ≤ X < 5%) | + (LOQ ≤ X < 5%) | + (LOQ ≤ X < 5%) | + (LOQ ≤ X < 5%) | + (LOQ ≤ X < 5%) | + (LOQ ≤ X < 5%)
5 | CCCN1C2CCCC1c1ccccc12 [Compound 7, 12-Propyl-12-azatricyclo[6.3.1.0^2,7]dodeca-2,4,6-triene hydrochloride] | 10 to 30 mg/kg | ++ (5% ≤ X < 25%) | +++ (25% ≤ X < 50%) | + (LOQ ≤ X < 5%) | ++ (5% ≤ X < 25%) | + (LOQ ≤ X < 5%) | + (LOQ ≤ X < 5%) | + (LOQ ≤ X < 5%) | ++ (5% ≤ X < 25%) | + (LOQ ≤ X < 5%) | + (LOQ ≤ X < 5%) | + (LOQ ≤ X < 5%) | + (LOQ ≤ X < 5%)
6 | CC(C)CN1C2CCCC1c1ccccc12 [Compound 8, 12-(2-Methylpropyl)-12-azatricyclo[6.3.1.0^2,7]dodeca-2,4,6-triene] | 10 to 30 mg/kg | ++++ (50% ≤ X < 100%) | + (LOQ ≤ X < 5%) | + (LOQ ≤ X < 5%) | ++ (5% ≤ X < 25%) | + (LOQ ≤ X < 5%) | + (LOQ ≤ X < 5%) | + (LOQ ≤ X < 5%) | ++ (5% ≤ X < 25%) | + (LOQ ≤ X < 5%) | + (LOQ ≤ X < 5%) | + (LOQ ≤ X < 5%) | + (LOQ ≤ X < 5%)
7 | c1ccc2c(c1)C1CCCC2N1C1CCOC1 (centres unmarked) [Compound 9, 12-(Oxolan-3-yl)-12-azatricyclo[6.3.1.0^2,7]dodeca-2,4,6-triene hydrochloride] | 10 to 30 mg/kg | +++ (25% ≤ X < 50%) | ++ (5% ≤ X < 25%) | + (LOQ ≤ X < 5%) | ++ (5% ≤ X < 25%) | + (LOQ ≤ X < 5%) | + (LOQ ≤ X < 5%) | + (LOQ ≤ X < 5%) | + (LOQ ≤ X < 5%) | + (LOQ ≤ X < 5%) | + (LOQ ≤ X < 5%) | ++ (5% ≤ X < 25%) | ++ (5% ≤ X < 25%)
8 | c1ccc2c(c1)C1CCCC2N1C1CCC1 [Compound 10, 12-Cyclobutyl-12-azatricyclo[6.3.1.0^2,7]dodeca-2,4,6-triene hydrochloride] | 1 to 10 mg/kg | ++++ (50% ≤ X < 100%) | ++ (5% ≤ X < 25%) | + (LOQ ≤ X < 5%) | ++ (5% ≤ X < 25%) | + (LOQ ≤ X < 5%) | ++ (5% ≤ X < 25%) | + (LOQ ≤ X < 5%) | ++ (5% ≤ X < 25%) | + (LOQ ≤ X < 5%) | + (LOQ ≤ X < 5%) | + (LOQ ≤ X < 5%) | + (LOQ ≤ X < 5%)
